In patent US5958770A, “Glycoalkaloids” (priority 1990, dated 1999):
Where two headings read alike, the source gives them in different places.

What was measured:
[1] = system: human cells, ovarian cancer cells, melanoma cells, cells infected with viruses, normal fibroblasts, normal bone marrow cells, leukemic cells and normal …; test: Inhibition of the action of the mixture of solasodine glycosides by free sugars and sugars bound to bovine serum albumin; format: cell-based; details: free sugar and bound to bovine serum albumin
ovarian cancer cells [2] = test: Inhibition of tritiated thymidine uptake, ovarian cancer cells
Protocol: (§1) The inhibition of cell replication by steroid alkaloids is determined by the inhibition of the incorporation of ^3 H thymidine into DNA. Using this technique, it should be possible to monitor any preferential inhibition of uptake of ^3 H thymidine by cancer cells.
(§2) Cells were maintained as monolayers in RPM1-1640 tissue culture media (Grant Island Biological Co) buffered with N-2-hydroxy-ethylpiperazine-N-2-ethanesulphonic acid pH 7.5 and supplemented with 10% heat inactivated fetal calf serum (FCS): (i) a human ovarian cancer cell line (C180-135), (ii) HeLa cells, (iii) human fibroblasts, and (iv) as a cell suspension of lymphoblastoid cells (EBV transformed lymphocytes). Monolayers were trypsinized to form a cell suspension. […] Cell concentration was adjusted to 2×10^5 cells/ml, and 2×10^4 cells were added in replicates of 10 to the wells (1×10^5 /ml well) of HA microtitre plates (Millipore Corp., USA). The cells were preincubated at 37.5° C. for 7 hours prior to the addition of 50 μl of the cytotoxic drug followed by the addition of 50 μl 5 uCi/ml of ^3 H thymidine, in the same tissue culture media 21 hours later. Incubation was continued for a total of 24 hours, which includes the pre-incubation time.
(§3) Appropriate DMSO cytotoxicity studies were also conducted. Solasodine glycosides were supplied as a mixture (BEC), and as separate components, solamargine, solasonine, a mixture of di- and mono-glycosides and the aglycone solasodine. All cytotoxic drugs were further diluted with HIFCS/TCM before testing. 5×10^4 ovarian cancer cells (200 μl/chamber of a chamber of microscope slide (Lab Tek Miles Scientific) were used. Controls received 50 μl HIFCS/TCM and experimental chambers 50 μl of solasodine glycosides (BEC) 1.5-3.8 μM/L after 7 hrs preincubation, and incubated for a further 3 hrs. Similarly, the cells were treated with the aglycone solasodine 19.4-96.8 μM/L. The cells were fixed and examined by the Papanicolaou method.

HeLa cells [3] = test: cells
Protocol: as §1, §2, §3

human fibroblasts = test: cells
Protocol: as §1, §2, §3

[4] = system: lymphoblastoid cells (EBV transformed lymphocytes); test: cells
Protocol: as §1, §2, §3

[5] = system: ovarian cancer cells, HeLa cells, lymphoblastoid cells, fibroblasts; test: Cytotoxicity / inhibition of tritiated thymidine uptake, cell types taken together; details: for inhibition of tritiated thymidine uptake / cytotoxicity (words): 11.3 μM/L, various cell types
Protocol: as §1, §2, §3

[6] = system: unstimulated and stimulated lymphocytes; details: for cytotoxicity (words): unstimulated and stimulated lymphocytes
Protocol: (§5) This was cultured for 48 hours and pulsed with tritiated thymidine for a further 24 hours. In the inhibition studies, the cell concentration was 8×10^5 /ml.
(§6) All cells were harvested by vacuum filtration by washing in 250 μl of each of phosphate buffered saline, 5% trichloroacetic acid, 1.0M NaCl and 95% ethanol and subjected to β-scintillatian counting. Similarly, peripheral human blood lymphocytes were isolated and cultured 2×10^5 lymphocytes in CO2 1640TCM 10% HIFCS. Lymphocytes were stimulated with 20 μg/ml PHA, Con A or PWM, and cultured for 48 hrs followed by a 24 hr pulse. […] Cell concentrations were 8×10^4 /well total volume 250 μl. The dpm of the experimental replicates were expressed as a percentage of the mean value of the controls, and the mean value of the experimental replicates calculated.

in vitro [7] = details: human, unstimulated lymphocytes
Protocol: as §5, §6

in vitro [8] = details: human, pha stimulated lymphocytes
Protocol: as §5, §6

in vitro [9] = details: human, con a stimulated lymphocytes
Protocol: as §5, §6

in vitro [10] = details: human, pwm stimulated lymphocytes
unstimulated lymphocytes [11] = test: DMG cytotoxicity with carbohydrates, unstimulated lymphocytes; format: cell-based, human
Protocol: (§4) A mixture of solasodine glycosides (BEC), of which the active compound is solamargine and from which the aglycone solasodine is derived was prepared for use in cytotoxicity assays as determined by the uptake of tritiated thymidine. Inhibition studies were carried out with lactose, lactosyl-albumin, galactose or rhamnose (Sigma Chemical Co., USA). All experimental replicates were related to their own controls. Total volume of replicates was 250 μl (carbohydrates added in 50 μl tissue culture media+10% fetal calf serum), and the cell concentrations were 8×10^4 /ml.

[12] = system: Con A stimulated lymphocytes; test: DMG cytotoxicity with carbohydrates, Con A stimulated lymphocytes; format: cell-based, human
Protocol: as §4

Sarcoma 180 = test: Survival of mice with Sarcoma 180, with and without rhamnose; format: in vivo
Protocol: Herston White mice with a body weight of approximately 30 g and aged 8-10 weeks served as recipients. Twelve mice were randomly chosen for each experimental group.
Sarcoma 180 tumour cells (5×10^5) were inoculated intraperitoneally into mice. This caused a mortality of 100% with a median survival time of 20 days in the control groups. A standard mixture of glycoalkaloids (BEC) was dissolved in dimethylsulfoxide at a concentration of 0.5 g BEC/100 ml dimethylsulfoxide. Similar solutions were made up but also contained 0.3125, 0.625 and 0.9375 g of rhamnose. These solutions were administered intraperitoneally in concentrations of 8 mg/kg animal weight for BEC (FIG. 9) without (-.tangle-solidup.-), and with 5 mg (-.quadrature.-), 10 mg (-.cndot.-) and 15 mg (-Δ-) rhamnose/kg animal weight. The first dose was given 0.5 hours after administration of the Sarcoma 180 tumour cells. The remaining three doses were given at daily intervals. Dimethylsulfoxide and rhamnose had no effect on Sarcoma 180 activity in the absence of BEC (-.smallcircle.-).

ovarian cancer cells [13] = test: Solamargine cytotoxicity in presence and absence of carbohydrates, ovarian cancer cells; format: cell-based, human; details: ovarian cancer cells
Protocol: as §4

HeLa cells [14] = test: Solamargine cytotoxicity in presence and absence of carbohydrates, HeLa cells; format: cell-based, human; details: HeLa cells
Protocol: as §4

lymphoblastoid cells = test: Solamargine cytotoxicity in presence and absence of carbohydrates, lymphoblastoid cells; format: cell-based; details: lymphoblastoid cells
Protocol: as §4

fibroblasts = test: Solamargine cytotoxicity in presence and absence of carbohydrates, fibroblasts; format: cell-based, human; details: fibroblasts
Protocol: as §4

ovarian cancer cells [15] = test: Morphological examination of ovarian cancer cells (Papanicolaou); format: cell-based, human; details: 19.4-96.8 μM/L; FIG. 2A
Protocol: Appropriate DMSO cytotoxicity studies were also conducted.
A human ovarian cancer cell line (C180-135) was grown as mono layers and trypsinized to form a cell suspension. The cells were adjusted to a concentration of 1×10^5 /ml (viability ≥95%) and 200 μl placed in each of the eight chambers of microscope chamber slides (Lab Tek, Miles Scientific). After 21 hours preincubation at 37.5° C., 50 μl of supplemented tissue culture media were added to the control chambers. To the other chambers were added 50 μl of solasodine glycosides (BEC) to give final concentrations of 3, 4.8, 6.7, 7.7, 9.6, 11.1 and 15.3 μM/L. Similarly, to a separate chamber slide was added the aglycone solasodine (19.4-96.8 μM/L). The slides were incubated at 37.5° C. for a further 3 hours, and the cells fixed in 95% V/V alcohol and stained by the Papanicolaou method. Two other chamber slides were prepared in a similar manner, but the solasodine glycosides and the aglycone were added at a final concentration of 0.77, 1.5, 2.3, 3.1 and 3.8 μM/L after 7 hours preincubation, and they incubated for a further 17 hours.

[16] = 100 mg solasodine/kg; cited from earlier work
unstimulated lymphocytes [17] = test: Inhibition of tritiated thymidine uptake, unstimulated lymphocytes; details: much higher concentrations; unstimulated lymphocytes (FIG. 8e)
Protocol: as §5, §6

Molecule: CC(=O)N[C@H]1C(O)O[C@H](CO)[C@@H](O)[C@@H]1O (stereo partly shown) [NAc glucosamine]
- inhibitory effect on the action of the mixture of solasodine glycosides [1]: inhibitory effects

Molecule: CC(=O)N[C@@H]1[C@@H](O)[C@H](O)[C@@H](CO)O[C@@H]1O [NAc glucose]
- inhibitory effect on the action of the mixture of solasodine glycosides [1]: inhibitory effects

Molecule: CC(=O)N[C@@H]1C(O)O[C@H](CO)[C@@H](O)[C@@H]1O (stereo partly shown) [NAc mannosamine]
- inhibitory effect on the action of the mixture of solasodine glycosides [1]: inhibitory effects

Molecule: CC(=O)NC1C(O)OC(CO)C(O)C1O (stereo not shown) [NAc mannose]
- inhibitory effect on the action of the mixture of solasodine glycosides [1]: inhibitory effects

Molecule: C[C@@H]1CC[C@@]2(NC1)O[C@H]1C[C@H]3[C@@H]4CC=C5C[C@@H](O[C@@H]6O[C@H](CO)[C@H](O)[C@H](O[C@@H]7O[C@H](CO)[C@@H](O)[C@H](O)[C@H]7O)[C@H]6O[C@@H]6O[C@@H](C)[C@H](O)[C@@H](O)[C@H]6O)CC[C@]5(C)[C@H]4CC[C@]3(C)[C@H]1[C@@H]2C [Solasonine, solasonine]
- viability at 11.3 µM (ovarian cancer cells [2]; Homo sapiens, read-out: Percentage Cell Survival): 93 ± 8%
- viability at 11.3 µM (HeLa cells [3]; Homo sapiens, HeLa, read-out: Percentage Cell Survival): 105 ± 9.5%
- viability at 11.3 µM (human fibroblasts; Homo sapiens, Fibroblast, read-out: Percentage Cell Survival): 96 ± 8.3%
- viability at 11.3 µM ([4]; Homo sapiens, Lymphoblastoid cell, read-out: Percentage Cell Survival): 117 ± 8%
- inhibition of tritiated thymidine uptake / cytotoxicity (words) [5]: ineffective
- inhibition of tritiated thymidine uptake / cytotoxicity (words) ([5]; listed as solasonine): not cytotoxic
- cytotoxicity (words) [6]: ineffective
- cytotoxicity (words) ([6]; listed as solasonine): absence of any effect
- viability at 11.3 µM (in vitro [7]): 97 ± 11.8%
- viability at 11.3 µM (in vitro [8]): 103 ± 5.7%
- viability at 11.3 µM (in vitro [9]): 97 ± 7%
- viability at 11.3 µM (in vitro [10]): 110 ± 3.8%

Molecule: O=C[C@H](O)[C@@H](O)[C@H](O)[C@H](O)CO [glucose]
- inhibition of the action of DMG (unstimulated lymphocytes [11]): do not inhibit DMG
- inhibition of the action of DMG [12]: inhibit the action of DMG
- effect on S180 activity in the absence of BEC (Sarcoma 180): no effects
- inhibitory effect on the action of the mixture of solasodine glycosides [1]: inhibitory effects

Molecule: OC[C@H]1O[C@@H](O[C@H]2[C@H](O)[C@@H](O)C(O)O[C@@H]2CO)[C@H](O)[C@@H](O)[C@H]1O (stereo partly shown) [lactose, reference compound]
- inhibition of solamargine cytotoxicity (ovarian cancer cells [13]): Partial inhibition
- inhibition of solamargine cytotoxicity (HeLa cells [14]): not inhibited
- inhibition of solamargine cytotoxicity (lymphoblastoid cells): partial inhibition
- inhibition of solamargine cytotoxicity (fibroblasts): completely inhibited
- inhibitory effect on the action of the mixture of solasodine glycosides [1]: inhibitory effects

Molecule: O=C[C@@H](O)[C@@H](O)[C@H](O)[C@H](O)CO [mannose]
- inhibitory effect on the action of the mixture of solasodine glycosides [1]: inhibitory effects

Molecule: C[C@H]1CC[C@@H]2[C@@H](C)[C@H]3[C@H](C[C@H]4[C@@H]5CC=C6C[C@@H](O[C@@H]7O[C@H](CO)[C@H](O)[C@H](O[C@@H]8O[C@H](CO)[C@@H](O)[C@H](O)[C@H]8O)[C@H]7O[C@@H]7O[C@@H](C)[C@H](O)[C@@H](O)[C@H]7O)CC[C@]6(C)[C@H]5CC[C@]34C)N2C1 [solanine]
- lysosomotropic/mitochondrial inhibition [5]: lack of lysosomotropic/mitochondrial inhibition

Molecule: C[C@@H]1CC[C@@]2(NC1)O[C@H]1C[C@H]3[C@@H]4CC=C5C[C@@H](O)CC[C@]5(C)[C@H]4CC[C@]3(C)[C@H]1[C@@H]2C [solasodine]
- cytotoxic effect of aglycone (ovarian cancer cells [2]; higher concentrations (FIG. 7)): increase in cytotoxicity
- morphological effect on ovarian cancer cells (ovarian cancer cells [15]): did not have any observable effect
- effectiveness against S180 (Sarcoma 180; aglycone, 100 mg/kg): not effective
- lysosomotropic/mitochondrial inhibition [5]: lack of lysosomotropic/mitochondrial inhibition
- cytotoxic effect of aglycone ([5]; equivalent concentrations of solamargine (FIG. 6)): does not exert a cytotoxic effect
- cytotoxic effect of aglycone ([6]; equivalent concentrations of DMG): does not exert a cytotoxic effect
- deaths in mice [16]: does not produce any deaths
- cytotoxic effect of aglycone (unstimulated lymphocytes [17]): substantial effect on unstimulated lymphocytes

Molecule: CC[C@]1(O)C[C@@H]2CN(CCc3c([nH]c4ccccc34)[C@@](C(=O)OC)(c3cc4c(cc3OC)N(C)[C@H]3[C@@](O)(C(=O)OC)[C@H](OC(C)=O)[C@]5(CC)C=CCN6CC[C@]43[C@@H]65)C2)C1 [vinblastine, reference compound]
- IC50 (ovarian cancer cells [2]; Homo sapiens, read-out: LD50 (dose to inhibit 50% tritiated thymidine uptake)): 9.5 µM
- TR50 (thymidine ratio relative to ovarian cancer cells) (HeLa cells [3]; HeLa / OvCa): 0.28
- IC50 (HeLa cells [3]; Homo sapiens, HeLa, read-out: LD50 (dose to inhibit 50% tritiated thymidine uptake)): 2700 nM
- TR50 (thymidine ratio relative to ovarian cancer cells) (human fibroblasts; FB / OvCa): 0.2
- IC50 (human fibroblasts; Homo sapiens, Fibroblast, read-out: LD50 (dose to inhibit 50% tritiated thymidine uptake)): 1900 nM
- TR50 for fibroblasts/lymphoblastoid cells (human fibroblasts; fibroblasts/lymphoblastoid cells): 0.73
- TR50 (thymidine ratio relative to ovarian cancer cells) ([4]; LCL / OvCa): 0.27
- IC50 ([4]; human gammaherpesvirus 4, LCL, read-out: LD50 (dose to inhibit 50% tritiated thymidine uptake)): 2600 nM
- cytotoxicity to normal cells relative to cancer cells ([5]; normal versus cancer cells): equally or more cytotoxic to normal cells relative to cancer cells
- CC50 (in vitro [7]): 11 µM
- CC50 (in vitro [8]): 19.2 µM
- CC50 (in vitro [9]): 7.8 µM
- CC50 (in vitro [10]): 10.8 µM

Molecule: galactose [reference compound]
- inhibition of solamargine cytotoxicity (ovarian cancer cells [13]): partial inhibition
- inhibition of solamargine cytotoxicity (HeLa cells [14]): not inhibited
- inhibition of solamargine cytotoxicity (lymphoblastoid cells): partial inhibition
- inhibition of solamargine cytotoxicity (fibroblasts): completely inhibited
- inhibitory effect on the action of the mixture of solasodine glycosides [1]: inhibitory effects

Molecule: rhamnose
- inhibition of solamargine cytotoxicity (fibroblasts): inhibition by rhamnose is also demonstrable
- inhibition of the action of DMG (unstimulated lymphocytes [11]): do not inhibit DMG
- inhibition of the action of DMG [12]: inhibit the action of DMG
- effect on S180 activity in the absence of BEC (Sarcoma 180): no effects
- inhibition of the efficacy of BEC (Sarcoma 180; mice with S180): inhibits the efficacy of BEC
